{"source": "patent US7322965B2", "about": "“Infection-resistant medical devices” (priority 2002, dated 2008)", "format_in_all_cases": "cell-based", "key": {"S. epidermidis UC-20207": {"system": "S. epidermidis UC-20207", "experiment": "Determination of minimum inhibitory concentration (microdilution)", "conditions": "Staphylococcus epidermidis, UC20207; S. epidermidis UC-20207; 18 h; read-out: MIC (minimum inhibitory concentration)"}, "S. epidermidis UC-20208 [1]": {"system": "S. epidermidis UC-20208", "experiment": "Determination of minimum inhibitory concentration (microdilution)", "conditions": "Staphylococcus epidermidis, UC20208; S. epidermidis UC-20208; 18 h; read-out: MIC (minimum inhibitory concentration)"}, "S. hominis SP2": {"system": "S. hominis SP2", "experiment": "Microtiter-plate adherence assay on polystyrene, nonadherent reference strain", "conditions": "data not shown", "method": "Briefly, the inoculum was established by the direct colony suspension method using the Prompt™ Inoculation System (Becton Dickinson, Sparks, Md.). The bacteria suspension, which was equal to the turbidity of a 0.5 McFarland standard, was diluted in TSB to a concentration of 1×10^6 colony forming units per ml (CFU/mL). One hundred microliters of the cell suspension was added to flat-bottom polystyrene wells (Corning Costar, Corning, N.Y.) containing 100 μl of TSB, with and without drug. The final inoculum concentration per well was approximately 5×10^5 CFU/mL. The plates were incubated at 37° C. under static conditions in air. At 18 hours (h) post-infection, the optical density of bacterial growth was measured at a wavelength of 595 nm in a microtiter plate reader (Vmax; Molecular Devices, Sunnyvale, Calif.). […] The optical density of bacterial adherence was determined at a wavelength of 550 nm. […] To compensate for background absorbance, optical density readings from wells treated with sterile medium, fixative and stain as described above were averaged and then subtracted from all test and control wells. […]\nReliability of the microtiter-plate adherence assay was assessed with the reference strains S. hominis SP2 (nonadherent) and S. epidermidis RP62A (strongly adherent). The median optical density readings for SP2 and RP62A were 0.059±0.004 and 2.789±0.266, respectively. […]"}, "S. epidermidis RP62A": {"system": "S. epidermidis RP62A", "experiment": "Time course adherence assay (prophylactic and delayed treatment)", "conditions": "for inhibition at 1 µg/mL / inhibition at 2 µg/mL / inhibition at 4 µg/mL / inhibition at 8 µg/mL: Staphylococcus epidermidis, read-out: Percent inhibition of bacterial adherence relative to controls", "summary_of_the_method": "(§1)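 Adherence of S. epidermidis to polystyrene read spectrophotometrically 18 h after treatment start, with drug at 4×MIC, 2×MIC, MIC and ½ MIC, given prophylactically or delayed. Inhibition (%) = (OD control − OD treated)/OD control × 100, from six wells over two experiments; control was infected drug-free culture. Dunnett's test vs untreated, p<0.05.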"}, "S. epidermidis UC-20208 [2]": {"system": "S. epidermidis UC-20208", "experiment": "Time course adherence assay (prophylactic and delayed treatment)", "conditions": "for inhibition at 1 µg/mL / inhibition at 2 µg/mL / inhibition at 4 µg/mL / inhibition at 8 µg/mL: Staphylococcus epidermidis, read-out: Percent inhibition of bacterial adherence relative to controls; for Mean OD550: UC-20208", "summary_of_the_method": "as §1"}, "[3]": {"conditions": "1.0 μg/ml, treatment 0 h post-infection"}, "[4]": {"conditions": "1.0 μg/ml, treatment 2 h post-infection"}, "[5]": {"conditions": "1.0 μg/ml, treatment 4 h post-infection"}, "[6]": {"conditions": "1.0 μg/ml, treatment 6 h post-infection"}, "[7]": {"conditions": "2.0 μg/ml (MIC), treatment 0 h post-infection"}, "[8]": {"conditions": "2.0 μg/ml (MIC), treatment 2 h post-infection"}, "[9]": {"conditions": "2.0 μg/ml (MIC), treatment 4 h post-infection"}, "[10]": {"conditions": "2.0 μg/ml (MIC), treatment 6 h post-infection"}, "[11]": {"conditions": "4.0 μg/ml, treatment 0 h post-infection"}, "[12]": {"conditions": "4.0 μg/ml, treatment 2 h post-infection"}, "[13]": {"conditions": "4.0 μg/ml, treatment 4 h post-infection"}, "[14]": {"conditions": "4.0 μg/ml, treatment 6 h post-infection"}, "[15]": {"conditions": "8.0 μg/ml, treatment 0 h post-infection"}, "[16]": {"conditions": "8.0 μg/ml, treatment 2 h post-infection"}, "[17]": {"conditions": "8.0 μg/ml, treatment 4 h post-infection"}, "[18]": {"conditions": "8.0 μg/ml, treatment 6 h post-infection"}}, "note": "Like-named read-outs stand apart in the source and are kept apart here.", "data": [{"smiles": "CC(=O)NC[C@H]1CN(c2ccc(N3CCOCC3)c(F)c2)C(=O)O1", "note": "[Linezolid, (S)-N-[[3-[3-fluoro-4-(4-morpholinyl)phenyl]-2-oxo-5-oxazolidinyl]methyl]acetamide]", "values": [{"measurement": "MIC", "setting": "S. epidermidis UC-20207", "result": 2, "unit": "µg/mL"}, {"measurement": "MIC", "setting": "S. epidermidis UC-20208 [1]", "result": 2, "unit": "µg/mL"}, {"measurement": "promotion of adherence of the nonadherent strain", "setting": "S. hominis SP2", "result": "Neither linezolid nor vancomycin promoted adherence"}, {"measurement": "Mean OD550", "setting": "S. epidermidis RP62A; [3]", "result": "0.000 ± 0.002"}, {"measurement": "Mean OD550", "setting": "S. epidermidis RP62A; [4]", "result": "0.000 ± 0.000"}, {"measurement": "Mean OD550", "setting": "S. epidermidis RP62A; [5]", "result": "0.000 ± 0.001"}, {"measurement": "Mean OD550", "setting": "S. epidermidis RP62A; [6]", "result": "0.274 ± 0.183"}, {"measurement": "Mean OD550", "setting": "S. epidermidis RP62A; [7]", "result": "0.004 ± 0.004"}, {"measurement": "Mean OD550", "setting": "S. epidermidis RP62A; [8]", "result": "0.001 ± 0.001"}, {"measurement": "Mean OD550", "setting": "S. epidermidis RP62A; [9]", "result": "0.003 ± 0.005"}, {"measurement": "Mean OD550", "setting": "S. epidermidis RP62A; [10]", "result": "0.083 ± 0.067"}, {"measurement": "Mean OD550", "setting": "S. epidermidis RP62A; [11]", "result": "0.002 ± 0.002"}, {"measurement": "Mean OD550", "setting": "S. epidermidis RP62A; [12]", "result": "0.003 ± 0.002"}, {"measurement": "Mean OD550", "setting": "S. epidermidis RP62A; [13]", "result": "0.002 ± 0.004"}, {"measurement": "Mean OD550", "setting": "S. epidermidis RP62A; [14]", "result": "0.082 ± 0.051"}, {"measurement": "Mean OD550", "setting": "S. epidermidis RP62A; [15]", "result": "0.002 ± 0.002"}, {"measurement": "Mean OD550", "setting": "S. epidermidis RP62A; [16]", "result": "0.003 ± 0.001"}, {"measurement": "Mean OD550", "setting": "S. epidermidis RP62A; [17]", "result": "0.000 ± 0.001"}, {"measurement": "Mean OD550", "setting": "S. epidermidis RP62A; [18]", "result": "0.021 ± 0.010"}, {"measurement": "inhibition at 1 µg/mL", "setting": "S. epidermidis RP62A; 0 h", "result": 100, "unit": "%"}, {"measurement": "inhibition at 2 µg/mL", "setting": "S. epidermidis RP62A; 0 h", "result": 99.8, "unit": "%"}, {"measurement": "inhibition at 4 µg/mL", "setting": "S. epidermidis RP62A; 0 h", "result": 99.9, "unit": "%"}, {"measurement": "inhibition at 8 µg/mL", "setting": "S. epidermidis RP62A; 0 h", "result": 99.9, "unit": "%"}, {"measurement": "inhibition at 1 µg/mL", "setting": "S. epidermidis RP62A; 2 h", "result": 100, "unit": "%"}, {"measurement": "inhibition at 2 µg/mL", "setting": "S. epidermidis RP62A; 2 h", "result": 99.9, "unit": "%"}, {"measurement": "inhibition at 4 µg/mL", "setting": "S. epidermidis RP62A; 2 h", "result": 99.9, "unit": "%"}, {"measurement": "inhibition at 8 µg/mL", "setting": "S. epidermidis RP62A; 2 h", "result": 99.8, "unit": "%"}, {"measurement": "inhibition at 1 µg/mL", "setting": "S. epidermidis RP62A; 4 h", "result": 100, "unit": "%"}, {"measurement": "inhibition at 2 µg/mL", "setting": "S. epidermidis RP62A; 4 h", "result": 99.8, "unit": "%"}, {"measurement": "inhibition at 4 µg/mL", "setting": "S. epidermidis RP62A; 4 h", "result": 99.8, "unit": "%"}, {"measurement": "inhibition at 8 µg/mL", "setting": "S. epidermidis RP62A; 4 h", "result": 100, "unit": "%"}, {"measurement": "inhibition at 1 µg/mL", "setting": "S. epidermidis RP62A; 6 h", "result": 78.4, "unit": "%"}, {"measurement": "inhibition at 2 µg/mL", "setting": "S. epidermidis RP62A; 6 h", "result": 93.4, "unit": "%"}, {"measurement": "inhibition at 4 µg/mL", "setting": "S. epidermidis RP62A; 6 h", "result": 93.5, "unit": "%"}, {"measurement": "inhibition at 8 µg/mL", "setting": "S. epidermidis RP62A; 6 h", "result": 98.4, "unit": "%"}, {"measurement": "inhibition at 1 µg/mL", "setting": "S. epidermidis UC-20208 [2]; UC20208, 0 h", "result": 99.9, "unit": "%"}, {"measurement": "inhibition at 2 µg/mL", "setting": "S. epidermidis UC-20208 [2]; UC20208, 0 h", "result": 99.9, "unit": "%"}, {"measurement": "inhibition at 4 µg/mL", "setting": "S. epidermidis UC-20208 [2]; UC20208, 0 h", "result": 99.8, "unit": "%"}, {"measurement": "inhibition at 8 µg/mL", "setting": "S. epidermidis UC-20208 [2]; UC20208, 0 h", "result": 100, "unit": "%"}, {"measurement": "inhibition at 1 µg/mL", "setting": "S. epidermidis UC-20208 [2]; UC20208, 2 h", "result": 99.8, "unit": "%"}, {"measurement": "inhibition at 2 µg/mL", "setting": "S. epidermidis UC-20208 [2]; UC20208, 2 h", "result": 99.8, "unit": "%"}, {"measurement": "inhibition at 4 µg/mL", "setting": "S. epidermidis UC-20208 [2]; UC20208, 2 h", "result": 99.7, "unit": "%"}, {"measurement": "inhibition at 8 µg/mL", "setting": "S. epidermidis UC-20208 [2]; UC20208, 2 h", "result": 99.7, "unit": "%"}, {"measurement": "inhibition at 1 µg/mL", "setting": "S. epidermidis UC-20208 [2]; UC20208, 4 h", "result": 22.1, "unit": "%"}, {"measurement": "inhibition at 2 µg/mL", "setting": "S. epidermidis UC-20208 [2]; UC20208, 4 h", "result": 100, "unit": "%"}, {"measurement": "inhibition at 4 µg/mL", "setting": "S. epidermidis UC-20208 [2]; UC20208, 4 h", "result": 100, "unit": "%"}, {"measurement": "inhibition at 8 µg/mL", "setting": "S. epidermidis UC-20208 [2]; UC20208, 4 h", "result": 100, "unit": "%"}, {"measurement": "inhibition at 1 µg/mL", "setting": "S. epidermidis UC-20208 [2]; UC20208, 6 h", "result": 0, "unit": "%"}, {"measurement": "inhibition at 2 µg/mL", "setting": "S. epidermidis UC-20208 [2]; UC20208, 6 h", "result": 0, "unit": "%"}, {"measurement": "inhibition at 4 µg/mL", "setting": "S. epidermidis UC-20208 [2]; UC20208, 6 h", "result": 56.8, "unit": "%"}, {"measurement": "inhibition at 8 µg/mL", "setting": "S. epidermidis UC-20208 [2]; UC20208, 6 h", "result": 89.1, "unit": "%"}, {"measurement": "Mean OD550", "setting": "S. epidermidis UC-20208 [2]; [3]", "result": "0.001 ± 0.002"}, {"measurement": "Mean OD550", "setting": "S. epidermidis UC-20208 [2]; [4]", "result": "0.003 ± 0.001"}, {"measurement": "Mean OD550", "setting": "S. epidermidis UC-20208 [2]; [5]", "result": "0.856 ± 0.472"}, {"measurement": "Mean OD550", "setting": "S. epidermidis UC-20208 [2]; [6]", "result": "1.127 ± 0.133"}, {"measurement": "Mean OD550", "setting": "S. epidermidis UC-20208 [2]; [7]", "result": "0.001 ± 0.001"}, {"measurement": "Mean OD550", "setting": "S. epidermidis UC-20208 [2]; [8]", "result": "0.003 ± 0.000"}, {"measurement": "Mean OD550", "setting": "S. epidermidis UC-20208 [2]; [9]", "result": "0.000 ± 0.003"}, {"measurement": "Mean OD550", "setting": "S. epidermidis UC-20208 [2]; [10]", "result": "1.602 ± 0.300"}, {"measurement": "Mean OD550", "setting": "S. epidermidis UC-20208 [2]; [11]", "result": "0.002 ± 0.001"}, {"measurement": "Mean OD550", "setting": "S. epidermidis UC-20208 [2]; [12]", "result": "0.004 ± 0.001"}, {"measurement": "Mean OD550", "setting": "S. epidermidis UC-20208 [2]; [13]", "result": "0.000 ± 0.001"}, {"measurement": "Mean OD550", "setting": "S. epidermidis UC-20208 [2]; [14]", "result": "0.363 ± 0.280"}, {"measurement": "Mean OD550", "setting": "S. epidermidis UC-20208 [2]; [15]", "result": "0.000 ± 0.001"}, {"measurement": "Mean OD550", "setting": "S. epidermidis UC-20208 [2]; [16]", "result": "0.004 ± 0.001"}, {"measurement": "Mean OD550", "setting": "S. epidermidis UC-20208 [2]; [17]", "result": "0.000 ± 0.003"}, {"measurement": "Mean OD550", "setting": "S. epidermidis UC-20208 [2]; [18]", "result": "0.092 ± 0.053"}]}]}
